According to PMC8122671, “New Succinimides with Potent Anticancer Activity: Synthesis, Activation of Stress Signaling Pathways and Characterization of Apoptosis in Leukemia and Cervical Cancer Cells” (International Journal of Molecular Sciences, 2021):
Entries after “also recorded” stand apart in the source; their conditions may differ. Where two headings read alike, the source gives them in different places.

What was measured:
[1] = test system: MOLT-4 (Human T-Lymphoid Cell Line); test: MTT cytotoxicity assay, MOLT-4; assay type: cell-based; details: MOLT-4, 48 h incubation, average (SD) of three experiments, read-out: IC50 MOLT-4
Procedure: (§1) The cytotoxicity of new derivatives of dicarboximides was tested in HeLa (cervix carcinoma cell line), K562 (myelogenous leukemia cell line), MOLT-4 (Human T-Lymphoid Cell Line), and HUVEC (normal endothelial) cells. First, the viability of cells was determined after 48 h incubation with the screened compounds used at the concentration of 100 μM (data not shown). […] Cells exposed to 1% DMSO (as vehicle) served as the control with 100% survival.
(§2) Human umbilical vein endothelial cells (Life Technologies, Carlsbad, CA, USA) were cultured (according to the manufacturer’s instructions) in Medium 200 containing low serum growth supplement; 1 × 10^4 cells were seeded on each well on a 96-well plate (Nunc, Roskilde, Denmark). The HeLa (human cervix carcinoma), K562, and MOLT-4 (leukemia) cells were cultured in RPMI 1640 medium supplemented with antibiotics and 10% fetal calf serum in a 5% CO2–95% air atmosphere; 7 × 10^3 cells were seeded on each well on a 96-well plate (Nunc). Twenty-four hours later, cells were exposed to the test compounds for additional 48 hours. Stock solutions of test compounds were freshly prepared in DMSO. The final concentrations of the compounds tested in the cell cultures were 2 × 10^−1, 1 × 10^−1, 5 × 10^−2, 1 × 10^−2, 1 × 10^−3, and 1 × 10^−4 mM. The concentration of DMSO in the cell culture medium was 1%. The values of IC50 (the concentration of test compound required to reduce the cell survival fraction to 50% of the control) were calculated from dose–response curves and used as a measure of cellular sensitivity to a given treatment. The cytotoxicity of all compounds was determined by the MTT [3-(4,5-dimethylthiazol-2-yl)-2,5-diphenyltetrazolium bromide; Sigma, St. Louis, MO, USA] assay. Briefly, after 24 or 48 h of incubation with drugs, the cells were treated with the MTT reagent, and incubation was continued for 2 h. MTT-formazan crystals were dissolved in 20% SDS and 50% DMF at pH 4.7, and absorbance was read at 570 and 650 nm on a microplate reader FLUOstar Omega (BMG Labtech, Offenburg, Germany). As a control (100% viability), we used cells grown in the presence of the vehicle (1% DMSO) only.

[2] = test system: plasmid DNA (pcDNA3.1HisC); test: DNA-cleavage protection assay (BamHI digestion of plasmid DNA); assay type: biochemical; details: 100 µM, overnight 37 °C, then BamHI 3 h
Procedure: A DNA-cleavage protection assay has been successfully used for the identification of compounds that bind DNA either covalently or noncovalently. Such binding may result in DNA being less susceptible to enzymatic cleavage. […] It was also reported that naphtalenoimides or indolomaleimides intercalate into DNA [13, 14]. […] In CD studies, a synthetic 23-nt duplex DNA or bovine thymus DNA was incubated with compound Ic or daunorubicin (reference compound). […] Using a DNA-cleavage protection assay, we investigated whether selected compounds 2c, 2d, and 2f and 3c, 3d, and 3f interact with a plasmid DNA, resulting in increased resistance to endonucleolytic cleavage. Plasmid DNA (pcDNA3.1HisC) containing a single BamHI cleavage site was incubated with test compounds and subsequently digested with BamH1 restriction endonuclease. Daunorubicin (a strong DNA-intercalating agent) was used as a reference compound. Non-digested plasmid DNA existed predominantly in the circular form; however, the superhelical and linear forms were also detected (Figure 5, lane 1). […] This observation can be explained by the higher lipophilicity of 3c, 3d, and 3f compared to 2c, 2d, and 2f, which may facilitate their more efficient binding to DNA.
First, 0.5 μg of plasmid DNA (pcDNAHisC, total length 5.5 kbp) containing a unique BamHI restriction site was dissolved in a 1× BamHI reaction buffer and incubated overnight at 37 °C with the test compounds or daunorubicin. Daunorubicin, a strong intercalating agent, was used as a positive control. The concentration of the test compounds and daunorubicin samples was 100 µM. In the next step, the reaction mixtures were digested with BamHI restriction endonuclease (2 U/μL) for 3 h at 37 °C. The total reaction volume was 10 μL. Products of the reaction were subjected to the 1% agarose gel electrophoresis in TBE buffer. The gel was stained with ethidium bromide, and DNA fragments were visualized under a UV lamp (GBox, Syngene).

[3] = test system: caspase 3/7 in K562 cells; test: Caspase-3/7 activity assay (Apo-ONE) in K562 cells; assay type: cell-based, human; details: K562, 18 h, test compound at 5xIC50, staurosporine 1 μM; vs 1% DMSO
Procedure: After incubation for 18 h, K562 cells were lysed and the activity of caspase 3/7 was measured using a profluorescent peptide substrate.
First, 20 × 10^3 K562 cells were seeded on each well of a 96-well plate in RPMI 1640 medium supplemented with 10% fetal calf serum and antibiotics. Cells were grown for 24 h at 37 °C and 5% CO2. Test dicarboximides were dissolved in DMSO and added to cell culture to the final concentration of 5 × IC50. […] Cells were exposed to test compounds for 18 h at 37 °C and 5% CO2. Subsequently, the activity of caspase 3 and 7 was measured by Apo-ONE® Homogeneous Caspase-3/7 Assay (Promega, Madison, WI, USA) according to the manufacturer’s instructions. Briefly, the cells were lysed and incubated for 1.5 h with a profluorescent substrate for caspase 3 and 7. Next, the fluorescence was read at an excitation wavelength of 485 nm and emission of 520 nm with a FLUOStar Omega microplate reader (BMG-Labtech, Offenburg, Germany).

[4] = test system: HeLa (human cervix carcinoma) cells; test: MTT cytotoxicity assay, HeLa; assay type: cell-based; details: 48 h incubation, average (SD) of three experiments, read-out: IC50 HeLa
Procedure: as §1, §2

[5] = test system: K562 (myelogenous leukemia cell line); test: MTT cytotoxicity assay, K562; assay type: cell-based, human; details: 48 h incubation, average (SD) of three experiments, read-out: IC50 K562
Procedure: as §1, §2

[6] = test system: HUVEC (normal endothelial) cells; test: MTT cytotoxicity assay, HUVEC; assay type: cell-based; details: Homo sapiens, 48 h incubation, average (SD) of three experiments, read-out: IC50 HUVEC
Procedure: as §1, §2

[7] = MTT cytotoxicity assay, cancer cell lines taken together (HeLa, K562, MOLT-4); assay type: cell-based; details: human, K562 and MOLT-4 cancer cells
Procedure: The cytotoxicity of new derivatives of dicarboximides was tested in HeLa (cervix carcinoma cell line), K562 (myelogenous leukemia cell line), MOLT-4 (Human T-Lymphoid Cell Line), and HUVEC (normal endothelial) cells. First, the viability of cells was determined after 48 h incubation with the screened compounds used at the concentration of 100 μM (data not shown). For compounds that reduced the viability of cancer cells by more than 50%, the IC50 values were determined (Table 2). Cells exposed to 1% DMSO (as vehicle) served as the control with 100% survival.
Human umbilical vein endothelial cells (Life Technologies, Carlsbad, CA, USA) were cultured (according to the manufacturer’s instructions) in Medium 200 containing low serum growth supplement; 1 × 10^4 cells were seeded on each well on a 96-well plate (Nunc, Roskilde, Denmark). […] The cytotoxicity of all compounds was determined by the MTT [3-(4,5-dimethylthiazol-2-yl)-2,5-diphenyltetrazolium bromide; Sigma, St. Louis, MO, USA] assay. […] MTT-formazan crystals were dissolved in 20% SDS and 50% DMF at pH 4.7, and absorbance was read at 570 and 650 nm on a microplate reader FLUOstar Omega (BMG Labtech, Offenburg, Germany). […]

SMILES | IC50 [1] | protection of plasmid DNA from BamHI digestion (circular DNA left) [2] | activity of caspase 3/7 [3] | IC50 [4] | IC50 [5] | IC50 ([5]; Homo sapiens, K562, 48 h) | IC50 [6] | melting point | viability at 48 h, 1 µM [7]
CCC12C(=O)C(CC)(C(c3ccccc3)=C1c1ccccc1)C1C(=O)N(CC(O)CN3CCCCC3)C(=O)C12 (stereo not shown) [2f, 4-[2-hydroxy-3-(piperidin-1-yl)propyl]-1,7-diethyl-8,9-diphenyl-4-azatricyclo[5.2.1.0^2,6]dec-8-ene-3,5,10-trione] | 3.4 µM | the circular form was also detected | over eight-fold increase in caspase activity; also recorded: activated caspase 3 and 7 | 5.1 µM | 3.9 µM | < 6 µM | 3.1 µM |  | 
O=C1C2C(C(=O)N1CC(O)CN1CCCCC1)C1(c3ccccc3)CC2(c2ccccc2)C(c2ccccc2)=C1c1ccccc1 (stereo not shown) [3f, 4-[2-hydroxy-3-(piperidin-1-yl)propyl]-1,7,8,9-tetraphenyl-4-azatricyclo[5.2.1.0^2,6]dec-8-ene-3,5-dione] | 3 µM | interaction seems to be stronger | activated caspase 3/7 to a lesser extent; also recorded: activated caspase 3 and 7 | 3 µM | 3 µM | < 6 µM | 0.4 µM |  | 
O=C1C2C(C(=O)N1CCO)C1(c3ccccc3)CC2(c2ccccc2)C(c2ccccc2)=C1c1ccccc1 (stereo not shown) [compound 5, 4-(2-hydroxyethyl)-1,7,8,9-tetraphenyl-4-azatricyclo[5.2.1.02,6]dec-8-ene-3,5-dione] | 2.1 µM |  |  | 8 µM |  | 6.2 µM | 0.7 µM | 197 to 198 °C | 
COc1cccc2c1C(=O)c1c(O)c3c(c(O)c1C2=O)C[C@@](O)(C(C)=O)C[C@@H]3O[C@H]1C[C@H](N)[C@H](O)[C@H](C)O1 [daunorubicin, reference compound] |  | prevented linearization of DNA |  |  |  |  |  |  | 
CN[C@@H]1C[C@H]2O[C@@](C)([C@@H]1OC)n1c3ccccc3c3c4c(c5c6ccccc6n2c5c31)C(=O)NC4 [staurosporine, reference compound] |  |  | strongly activated caspase 3/7 |  |  |  |  |  | 44 to 49%
